What was measured:
[1] = test system: procollagen α1(I) RNA; experiment: Multiprobe RNAse protection assay of liver RNA, procollagen α1(I); type: in vivo, rat; details: BDO rats, LU 80 mg/kg/d for 6 weeks; relative to GAPDH; p<0.05
Description: Plasmids encoded predescribed regions of the rat procollagen α1 (I) and […] (GAPDH) genes, encompassing 230 bp (Bam HI/Rsal sites) and 102 bp (position 335-437), resp. (44, 45). The rat tissue inhibitor of metalloproteinase-1 (TIMP-1) probe (position 176-439) was prepared by RT-PCR according to the published sequence (J. P. Iredale, R. C. Benyon, M. J. P. Arthur (1996). Hepatology 24:176-184.), cloned into pZErO-1 (Invitrogen, San Diego, Calif., U.S.A.) and confirmed by restriction enzyme analysis. Preparation of riboprobes: The cDNA templates were linearized with appropriate restriction endonucleases. […] Riboprobes were purified by electrophoresis through a denaturing polyacrylamide gel and the radioactivity of eluted probes were measured by liquid scintillation counting. […] Autoradiographic signals were analyzed with the public domain NTH Image Program. The procollagen α1(I) and TIMP-1 RNA signals were normalized to the signal of GAPDH RNA and expressed as relative abundance (arbitrary units). 10 liver samples each of negative controls, of untreated rats with BDO and of rats with BDO that received LU at 80 mg/kg/d were analyzed.

[2] = Clinical chemical serum parameters in BDO and sham-operated rats; type: in vivo, rat; details: for ALP / ALT / AST / Bili (total bilirubin) / γGT: serum, mean ± SD
Description: Female adult wistar rats, average weight 206±19 g, underwent the following microsurgical procedure under an operating microscope (OPMI 6-2, Zeiss, Germany) (B. Gerling, M. Becker, J. Waldschmidt, D. Schuppan (1996). J. Hepatol. 25:79-84; G. Boigk, L. Stroedter, H. Herbst H, et al. (1997). Hepatology 26:643-639.): 1. midline abdominal incision following anaesthesia with 100 mg/kg ketamine-hydroochloride (Ketanest®, Parke-Davis, Germany) and 10 mg/kg 5,6-dihydro-2-(2,6-xylidino)-4H-1,3-thiazine-hydrochloride (Rompun®, Bayer, Germany); 2. dissection of the common bile duct, insertion of a teflon catheter (Abbocath -T 26 G, venisystems, U.S.A.) and placement of a distal complete and a proximal incomplete ligature with 5-0 silk (Permahand , Ethicon, Germany); 3. retrograde injection of sodium-amidotrizoate (Ethibloc®, Ethicon Germany) at a dose of 0.02 ml/100 g body weight; 4. removal of the catheter, closure of the proximal ligature, scission of the bile duct between the ligatures and wound closure. After bile duct occlusion (BDO), animals received normal chow (Altromin®, Lage, Germany) and were allowed free access to water. […] The following therapeutic groups were formed: 1. BDO and LU at 80 mg/kg/d for 6 weeks (BDO 80/1-6:n=20); 2. BDO and LU at 80 mg/kg/d from week 4-6 of BDO (BDO 80/4-6:n=20); 3. […]
Standard laboratory parameters were measured by our in-hospital clinical chemical department, using an automated analyser (BM/Hitachi 747). The aminoterminal propeptide of procollagen type III (PIIINP) was determined using a sequential saturation radioimmunoassay based on PIINP from rat, a monospecific rabbit antiserum to rat PIIINP and a goat antiserum to rabbit IgG, using a previously described procedure (B. Gerling, M. Becker, J. Waldschmidt, D. Schuppan (1996). J. Hepatol. 25:79-84; G. Boigk, L. Stroedter, H. Herbst H, et al. (1997). Hepatology 26:643-649; d. Schuppan, J. M. Dumont, K. Y. Kim, et al. (1986). J. Hepatol. 3:27-37.). Inter- and intra-assay coefficients of variation were 12% and 5% for a normal and 4% and 3% for a pathological serum sample, resp.

[3] = BDO/LU 80/1-6 (n = 10): BDO, LU 80 mg/kg/d week 1-6
[4] = BDO/LU 80/4-6 (n = 14): BDO, LU 80 mg/kg/d week 4-6
[5] = Sham/LU: sham operation, LU 80 mg/kg/d for 6 weeks, n = 10

In the case of `COc1cc(OC)nc(O[C@H](C(=O)O)C(OC)(c2ccccc2)c2ccccc2)n1` [LU], the “Reduction of procollagen α1(I) mRNA level” value [1] is reported as 35%, the “Clinical chemical serum parameters (AST, ALT, alkaline phosphatase, gamma glutamyltranspeptidase, total bilirubin, creatinine)” value ([2]; all groups with BDO) is reported as “did not differ between all groups with BDO” and the ALP ([2]; headed BDO/LU 80/1-6 (n = 20)) is reported as 256.1 ± 49.6 U/L. For the same molecule, the ALT ([2]; headed BDO/LU 80/1-6 (n = 20)) was 22 ± 8.4 U/L, the AST ([2]; headed BDO/LU 80/1-6 (n = 20)) was 198 ± 56.7 U/L and the “Bili (total bilirubin)” value ([2]; headed BDO/LU 80/1-6 (n = 20)) was 189.5 ± 43.2 µmol/L. It also gave a γGT ([2]; headed BDO/LU 80/1-6 (n = 20)) of 15 ± 6.4 U/L, an ALP [2, 3] of 230.7 ± 55.7 U/L and an ALT [2, 3] of 23.6 ± 10.8 U/L. For the same molecule, the AST [2, 3] was 160.9 ± 78.5 U/L, the “Bili (total bilirubin)” value [2, 3] was 171.3 ± 49.5 µmol/L and the γGT [2, 3] was 32.7 ± 24.4 U/L. The ALP [2, 4] was 253.1 ± 75.8 U/L, the ALT [2, 4] was 40.2 ± 52 U/L and the AST [2, 4] was 229 ± 78.5 U/L. The “Bili (total bilirubin)” value [2, 4] was 209.9 ± 48.9 µmol/L, the γGT [2, 4] was 28.1 ± 26.4 U/L and the ALP [2, 5] was 85.3 ± 17.9 U/L. The ALT [2, 5] was 21.7 ± 3.3 U/L, the AST [2, 5] was 36.4 ± 7.9 U/L and the “Bili (total bilirubin)” value [2, 5] was 1.6 ± 0.5 µmol/L. For the same molecule, the γGT [2, 5] was 0.3 ± 0.5 U/L.

— US20020098186A1, “Use of endothelin inhibitors for treatment or prevention of fibrotic disorders” (priority 1999, published 2002)
